System: Y-1 (ATCC Accession No. CCL 79) cells
Assay: GEM (Gene Expression Microarray) expression profile of treated vs control Y1 cells, Incyte mouse cDNA array
Assay type: cell-based
Conditions: 16 hours; for number of common genes upregulated by FSH, 024 & forskolin: Y1 cells, FSH 10^-9 M, 024 1 uM, Forskolin 1 uM
Method: A mouse cDNA array from Incyte, Inc. was used to analyze the expression profile of Y-1 (ATCC Accession No. CCL 79) cells. This transcriptional profile analysis led to the identification of the FSH or FSH Mimetic stimulated genes of the invention.
Y1 cells were incubated with Ham's F-10 Nutrient Mixture Media supplemented with glutamine (1%), G418 geneyticin (80 ug/ml), penicillin-streptomycin (1%), fetal horse serum (15%), and fetal bovine serum (2.5%) and grown to confluency. Confluent cells were then exposed to FSH at 10^-9 M (See Table 1) or FSH Mimetic 024 at 1 uM (see Table 3), Forskolin at 1 uM (See Table 4) and all three agents (i.e., FSH at 10^−9 M, FSH Mimetic 024 at 1 uM and Forskolin at 1 uM—See Table 2) for 16 hours. Total RNA was isolated from control or treated cells with ULTRASPEC™ RNA from Biotech Laboratories, Inc. All media and supplements were obtained from Gibco BRL Life Technologies.
The GEM (Gene Expression Microarray) technology uses the following steps to discover differences in gene expression between two messenger RNA (mRNA) samples. Small samples of cDNA were deposited on a glass surface and bonded to the glass. Subsequently, large portions from one half of the DNA's double strands were removed in order to activate the individual elements of the array, preparing them to react and bind to their uniquely matched DNA counterparts in the cells being tested.
Two mRNA samples were prepared and color labeled, since the GEM technology uses a color coding technique to discover the differences in gene expression between two mRNA samples. […]
The two fluorescent probe samples were simultaneously applied to a single microarray, where they competitively react with the arrayed cDNA molecules. […] The intensity of the fluorescence at each array element is proportional to the expression level of that gene in the sample. […] The ratio of the two fluorescent intensities provided a quantitative measurement of the relative gene expression level in the two cell samples. […]

| Compound | number of genes regulated in Y1 cells (FSH at 10^-9 M) | number of common genes upregulated by FSH, 024 & forskolin |
| --- | --- | --- |
| Follicle Stimulating Hormone [FSH] | FSH regulats 189 genes in Y1 cells | 64 common genes upregulated by FSH, 024 & forskolin |
| C=C[C@@]1(C)CC(=O)[C@]2(O)[C@@]3(C)[C@@H](O)CCC(C)(C)[C@@H]3[C@H](O)[C@H](OC(C)=O)[C@@]2(C)O1 [Forskolin, reference compound] | – | 64 common genes upregulated by FSH, 024 & forskolin |

From patent US20030162692A1, “Follicle stimulating hormone stimulated genes and uses thereof” (priority 2000, published 2003)
